Results on 1 molecule are retold here after patent US7582652B2, “Kinase inhibitors” (Eli Lilly and Company, priority 2004, dated 2009).

This assay relates to TNF-α production in mouse peritoneal macrophages. In words: Inhibition of TNF-α in vitro (mouse peritoneal macrophages, LPS/interferon-γ, Luminex). The class given is cell-based. The note with it: suppression of TNF-α; macrophages treated with 50 ng/mL LPS and 10 U/mL interferon-γ for 18 h. The protocol: Mouse Peritoneal Macrophages
1 mL thioglycolate broth (5.0 g yeast extract, 15.0 g casitone or trypticase, 5.0 g dextrose, 2.5 g sodium chloride, 0.75 g L-cystine, 0.5 g sodium thioglycolate, 1.0 mg resazurin, and 0.75 g agar in 1.0 L distilled water) is injected into the peritoneal cavity of Balb/C female mice. At day 4 or 5 post-injection the mice are sacrificed and then injected i.p. with 4 mL RPMI-1640 medium (BioWhittaker) and the peritoneal macrophages are withdrawn by syringe.
Mouse peritoneal microphages are counted with a hemocytometer and adjusted to 5×10^5 cells/well in 96-well plates in RPMI-1640 medium with 10% fetal bovine serum. 200 μL/well is plated in 96-well plates and the cells allowed to settle and adhere to the bottom of the well for at least 3 h. The test compound or standard p38 kinase inhibitor is pre-treated using a series of 8 concentrations for 1 h at 37° C. (20 μL/well). The cells are treated with a mixture of 50 ng/mL lipopolysaccharide (LPS) and 10 U/mL interferon-γ for 18 h at 37° C. (20 μL/well). The conditioned media is harvested and assayed for TNF-α production using the Luminex procedure.
TNF-α/Luminex Detection Assay (Bio-Rad Bio-Plex Kit—Catalog #171-G12221)
The lyophilized premixed TNF-α standard (1 standard tube/two 96-well plates) is reconstituted with 50 μL sterile water (500,000 pg/mL). The samples are vortexed for 5 seconds, incubated on ice for 30 min, and vortexed for 5 seconds before use. A set of twelve 1.5 mL tubes are labeled with #1-thru #12 and then the amounts of cell media shown below added to the appropriate tubes (standard concentrations are as follows: 50,000; 25,000; 12,500; 6,250; 3,125; 1,562.5; 781.3; 390.6; 195.3; 97.7; 48.8; and 24.4 pg/mL). The premixed anti-cytokine conjugated beads are vortexed (25×) vigorously for 30 seconds. The anti-cytokine conjugated beads are diluted to a 1× concentration using 1× Bio-Plex Assay Buffer. For every plate, 240 μL of the pre-mixed beads is added to 5760 μL of Bio-Plex Assay Buffer. A Millipore 96-well filter plate is blocked with 100 μL/well of blocking buffer. The blocking buffer is filtered through using a Millipore filtration system and then toweled dry. 2 washes are performed on the filter plate with 100 μL/well of Bio-Plex Assay Buffer and toweled dry. The 1× anti-cytokine conjugated beads are vortexed for 15 seconds and added 50 μL to each well. This is filtered through and toweled dry. 2 washes are performed on plates with 100 μl/well of Bio-Plex Wash Buffer. Again, it is filtered through and toweled dry. 50 μL of sample or standard is added to each sample well. This is incubated for 60 seconds at RT on a shaker protected from light at setting 6 and then for 30 min at setting 3 and then placed in the refrigerator overnight. 3 washes are performed with Bio-Plex Wash Buffer. Filter through and toweled dry. The cytokine detection antibody is prepared (˜10 min prior to use) for every plate and 60 μL of the premixed cytokine detection antibody stock is added to 5940 μL of Bio-Plex Detection Antibody Diluent. 50 μL of cytokine detection antibody is added and incubated for 60 seconds at RT on a shaker protected from light at setting 6 and then for 30 min at setting 3.3 washes are performed with the Bio-Plex Wash Buffer. This is filtered through and toweled dry. Strept-PE (˜10 minutes prior to use) is prepared for every plate and 60 μL to 5940 μL of Bio-Plex Assay Buffer added. 50 μL of Streptavidin-PE is added to each well and incubated for 60 seconds at RT on a shaker protected from light at setting 6 and then for 10 min at setting 3. 3 washes are performed with Bio-Plex Wash-Buffer. This is filtered through. The beads are re-suspended in 100 μL/well of Bio-Plex Assay Buffer. Standards and samples are read on a Luminex machine. […]

Consider `CC(C)(C)Cn1c(N)nc2ccc(-c3nc(C(C)(C)C)[nH]c3-c3ccc(F)cc3)nc21.CS(=O)(=O)O.CS(=O)(=O)O` [EXAMPLE 104, Crystalline 5-[2-tert-Butyl-5-(4-fluoro-phenyl)-1H-imidazol-4-yl]-3-(2,2-dimethyl-propyl)-3H-imidazo[4,5-b]pyridin-2-ylamine dimethanesulfonate], for which the IC50 was found to be 6.3 nM.

One may read the IC50 as the point on the concentration scale where inhibition reaches its midpoint. The low end stands for higher potency, the high end for lower potency.
